Measured values from article PMC6430017, “Structural and chemical insights into the covalent-allosteric inhibition of the protein kinase Akt” (Chemical Science, 2019).

Columns and labels:
Test in all cases: SelectScreen Z'LYTE kinase profiling
Format in all cases: biochemical
Settings in all cases: ATP at apparent KM
SGK (SGK1) = molecular target: T1, SGK (SGK1) (Homo sapiens, UniProt O00141)
T1 sequence (O00141 1-431): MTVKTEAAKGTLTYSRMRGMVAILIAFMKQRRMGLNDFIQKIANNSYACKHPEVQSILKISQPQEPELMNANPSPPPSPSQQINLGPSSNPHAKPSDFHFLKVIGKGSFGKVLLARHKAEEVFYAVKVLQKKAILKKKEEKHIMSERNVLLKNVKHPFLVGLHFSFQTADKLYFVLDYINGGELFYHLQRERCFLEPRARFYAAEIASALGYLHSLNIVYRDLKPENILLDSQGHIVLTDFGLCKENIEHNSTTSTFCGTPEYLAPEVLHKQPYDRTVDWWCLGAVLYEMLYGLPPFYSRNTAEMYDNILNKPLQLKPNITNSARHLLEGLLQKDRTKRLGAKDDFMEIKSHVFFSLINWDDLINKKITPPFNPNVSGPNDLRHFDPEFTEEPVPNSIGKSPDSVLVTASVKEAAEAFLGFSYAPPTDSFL
Experimental: (§1) protein kinases at a compound concentration of 1 µM. Measurements were performed in duplicates
(§2) and at the particular apparent ATP KM of each individual kinase employing the activity based Z’LYTE®
(§3) kinase assay of the SelectScreen® Kinase Profiling Services (ThermoFisher Scientific).
(§4) kinases at a compound concentration of 1 µM. Measurements were performed in duplicates and at
(§5) the particular apparent ATP KM of each individual kinase employing the activity based Z’LYTE® kinase
(§6) assay of the SelectScreen® Kinase Profiling Services (ThermoFisher Scientific).

ITK = molecular target: T2, ITK (Homo sapiens, UniProt Q08881)
T2 sequence (Q08881 1-620): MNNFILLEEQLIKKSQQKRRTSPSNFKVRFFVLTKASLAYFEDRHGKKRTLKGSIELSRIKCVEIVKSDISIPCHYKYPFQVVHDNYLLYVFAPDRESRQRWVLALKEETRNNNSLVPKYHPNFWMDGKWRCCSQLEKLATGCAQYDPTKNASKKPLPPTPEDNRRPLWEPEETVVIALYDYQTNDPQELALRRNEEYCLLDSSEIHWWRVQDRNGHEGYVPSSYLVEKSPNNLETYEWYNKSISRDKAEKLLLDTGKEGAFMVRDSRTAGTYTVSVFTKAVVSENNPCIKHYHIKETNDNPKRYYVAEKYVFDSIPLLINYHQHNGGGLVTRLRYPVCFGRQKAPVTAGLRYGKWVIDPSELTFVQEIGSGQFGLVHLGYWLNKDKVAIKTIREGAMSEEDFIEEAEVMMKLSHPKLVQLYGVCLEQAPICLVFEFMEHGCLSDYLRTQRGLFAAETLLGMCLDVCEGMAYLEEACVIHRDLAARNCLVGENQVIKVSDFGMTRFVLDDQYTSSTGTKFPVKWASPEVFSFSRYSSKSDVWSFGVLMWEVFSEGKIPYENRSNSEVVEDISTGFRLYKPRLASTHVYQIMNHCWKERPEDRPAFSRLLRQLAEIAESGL
Experimental: as §1, §2, §3, §4, §5, §6

GRK5 = GRK5 (Homo sapiens, UniProt P34947)
Experimental: as §1, §2, §3, §4, §5, §6

PRKG1 = molecular target: T3, PRKG1 (Homo sapiens, UniProt Q13976)
T3 sequence (Q13976 1-671): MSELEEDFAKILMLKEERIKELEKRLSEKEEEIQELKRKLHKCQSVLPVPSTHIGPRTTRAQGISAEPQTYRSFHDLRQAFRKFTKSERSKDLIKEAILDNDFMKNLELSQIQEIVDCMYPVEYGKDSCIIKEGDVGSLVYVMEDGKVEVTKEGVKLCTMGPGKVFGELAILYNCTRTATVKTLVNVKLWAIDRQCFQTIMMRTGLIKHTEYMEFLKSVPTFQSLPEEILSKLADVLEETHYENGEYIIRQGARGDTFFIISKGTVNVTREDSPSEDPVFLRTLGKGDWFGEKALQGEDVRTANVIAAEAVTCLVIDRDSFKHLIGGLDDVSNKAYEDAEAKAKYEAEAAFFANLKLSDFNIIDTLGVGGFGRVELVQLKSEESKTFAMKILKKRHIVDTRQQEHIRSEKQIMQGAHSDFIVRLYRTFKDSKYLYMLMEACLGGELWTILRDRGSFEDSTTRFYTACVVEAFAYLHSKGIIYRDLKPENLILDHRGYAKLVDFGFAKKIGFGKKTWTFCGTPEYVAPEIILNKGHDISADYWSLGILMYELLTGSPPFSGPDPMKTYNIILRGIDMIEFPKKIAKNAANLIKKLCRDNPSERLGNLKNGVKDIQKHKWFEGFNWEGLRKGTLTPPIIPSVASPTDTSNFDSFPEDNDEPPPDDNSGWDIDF

MARK1 (MARK) = MARK1 (MARK) (Homo sapiens, UniProt Q9P0L2)
Experimental: as §1, §2, §3, §4, §5, §6

PRKCI (PKC iota) = molecular target: T4, PRKCI (PKC iota) (Homo sapiens, UniProt P41743)
T4 sequence (P41743 1-596): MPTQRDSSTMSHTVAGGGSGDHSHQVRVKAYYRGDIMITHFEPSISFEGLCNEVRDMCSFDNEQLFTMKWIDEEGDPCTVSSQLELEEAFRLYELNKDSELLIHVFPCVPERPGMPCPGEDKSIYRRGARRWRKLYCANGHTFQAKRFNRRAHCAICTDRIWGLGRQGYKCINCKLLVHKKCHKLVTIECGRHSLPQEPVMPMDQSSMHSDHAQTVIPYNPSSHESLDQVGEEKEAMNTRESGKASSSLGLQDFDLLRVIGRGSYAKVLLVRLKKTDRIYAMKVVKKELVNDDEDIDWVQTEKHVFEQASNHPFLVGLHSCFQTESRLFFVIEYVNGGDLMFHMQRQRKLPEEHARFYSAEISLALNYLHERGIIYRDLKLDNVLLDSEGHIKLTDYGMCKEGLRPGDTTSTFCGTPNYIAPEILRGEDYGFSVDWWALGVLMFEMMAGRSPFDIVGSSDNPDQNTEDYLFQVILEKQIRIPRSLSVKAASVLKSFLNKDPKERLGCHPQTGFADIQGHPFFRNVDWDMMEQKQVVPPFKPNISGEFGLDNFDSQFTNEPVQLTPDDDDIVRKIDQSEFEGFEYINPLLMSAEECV
Experimental: as §1, §2, §3, §4, §5, §6

CDK1/cyclin B = CDK1/cyclin B (Homo sapiens, UniProt P06493)
Experimental: as §1, §2, §3, §4, §5, §6

NTRK2 (TRKB) = NTRK2 (TRKB) (Homo sapiens, UniProt Q16620)
Experimental: as §1, §2, §3, §4, §5, §6

PIM1 = PIM1 (Homo sapiens, UniProt P11309)
Experimental: as §1, §2, §3, §4, §5, §6

PRKCB1 (PKC beta I) = PRKCB1 (PKC beta I) (Homo sapiens, UniProt P05771)
Experimental: as §1, §2, §3, §4, §5, §6

MAP4K5 (KHS1) = MAP4K5 (KHS1) (Homo sapiens, UniProt Q9Y4K4)
Experimental: as §1, §2, §3, §4, §5, §6

ABL1 = ABL1 (Homo sapiens, UniProt P00519)
Experimental: as §1, §2, §3, §4, §5, §6

AMPK A2/B1/G1 = AMPK A2/B1/G1 (Homo sapiens, UniProt P54646)
Sequence of AMPK A2/B1/G1 (P54646 whole entry): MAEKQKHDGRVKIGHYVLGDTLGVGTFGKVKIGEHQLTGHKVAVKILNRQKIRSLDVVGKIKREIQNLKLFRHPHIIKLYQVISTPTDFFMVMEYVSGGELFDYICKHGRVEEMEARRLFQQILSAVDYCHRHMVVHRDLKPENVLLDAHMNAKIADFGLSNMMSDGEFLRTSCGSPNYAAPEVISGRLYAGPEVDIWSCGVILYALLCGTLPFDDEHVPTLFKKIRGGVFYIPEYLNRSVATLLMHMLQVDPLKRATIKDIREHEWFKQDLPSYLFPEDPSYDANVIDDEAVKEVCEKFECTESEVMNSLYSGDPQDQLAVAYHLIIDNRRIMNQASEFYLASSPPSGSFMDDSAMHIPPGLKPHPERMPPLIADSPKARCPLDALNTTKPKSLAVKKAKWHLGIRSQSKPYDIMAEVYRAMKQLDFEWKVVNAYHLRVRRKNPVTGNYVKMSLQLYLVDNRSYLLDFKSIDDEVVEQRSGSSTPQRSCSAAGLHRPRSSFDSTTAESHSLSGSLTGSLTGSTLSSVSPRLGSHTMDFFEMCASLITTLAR
Sequence of AMPK A2/B1/G1 (Q9Y478 whole entry partner): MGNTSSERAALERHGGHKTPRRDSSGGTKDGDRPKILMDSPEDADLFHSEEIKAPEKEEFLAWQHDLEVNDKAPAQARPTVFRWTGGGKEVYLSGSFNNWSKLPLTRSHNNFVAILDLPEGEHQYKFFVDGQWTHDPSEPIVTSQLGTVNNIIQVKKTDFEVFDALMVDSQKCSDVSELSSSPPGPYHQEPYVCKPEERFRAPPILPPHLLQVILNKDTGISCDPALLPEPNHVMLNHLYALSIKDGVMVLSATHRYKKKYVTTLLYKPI
Sequence of AMPK A2/B1/G1 (P54619 whole entry partner): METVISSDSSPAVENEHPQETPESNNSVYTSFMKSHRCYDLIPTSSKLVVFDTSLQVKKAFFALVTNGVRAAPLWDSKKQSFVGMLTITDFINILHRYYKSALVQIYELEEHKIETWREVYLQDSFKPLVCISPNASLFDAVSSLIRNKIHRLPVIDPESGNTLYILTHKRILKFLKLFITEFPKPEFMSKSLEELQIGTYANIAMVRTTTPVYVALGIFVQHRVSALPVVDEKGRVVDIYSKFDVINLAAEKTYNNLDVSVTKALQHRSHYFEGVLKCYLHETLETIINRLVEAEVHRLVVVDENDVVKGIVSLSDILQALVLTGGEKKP
Experimental: as §1, §2, §3, §4, §5, §6

Sequence of CDK1/cyclin B (P06493 whole entry): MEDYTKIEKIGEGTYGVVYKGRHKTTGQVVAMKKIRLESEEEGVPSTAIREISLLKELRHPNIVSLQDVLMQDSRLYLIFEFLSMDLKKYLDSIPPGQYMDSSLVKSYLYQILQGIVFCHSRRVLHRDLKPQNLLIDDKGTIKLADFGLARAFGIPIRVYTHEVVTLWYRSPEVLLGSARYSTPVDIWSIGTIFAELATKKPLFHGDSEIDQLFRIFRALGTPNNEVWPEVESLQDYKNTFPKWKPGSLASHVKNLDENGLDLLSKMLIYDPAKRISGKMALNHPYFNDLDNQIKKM
Sequence of CDK1/cyclin B (P14635 whole entry partner): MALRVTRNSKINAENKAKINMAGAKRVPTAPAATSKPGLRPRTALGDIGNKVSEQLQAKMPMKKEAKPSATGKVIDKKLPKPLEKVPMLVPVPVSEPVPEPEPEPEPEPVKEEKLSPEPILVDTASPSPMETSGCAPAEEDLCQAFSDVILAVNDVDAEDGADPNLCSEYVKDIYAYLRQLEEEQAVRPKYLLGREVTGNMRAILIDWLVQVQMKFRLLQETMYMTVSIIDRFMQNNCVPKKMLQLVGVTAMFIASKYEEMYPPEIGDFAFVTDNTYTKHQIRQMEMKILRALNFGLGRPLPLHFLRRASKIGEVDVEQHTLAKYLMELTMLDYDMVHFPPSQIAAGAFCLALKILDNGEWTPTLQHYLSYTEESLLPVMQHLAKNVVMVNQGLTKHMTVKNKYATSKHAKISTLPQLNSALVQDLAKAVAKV
Sequence of ABL1 (P00519 whole entry): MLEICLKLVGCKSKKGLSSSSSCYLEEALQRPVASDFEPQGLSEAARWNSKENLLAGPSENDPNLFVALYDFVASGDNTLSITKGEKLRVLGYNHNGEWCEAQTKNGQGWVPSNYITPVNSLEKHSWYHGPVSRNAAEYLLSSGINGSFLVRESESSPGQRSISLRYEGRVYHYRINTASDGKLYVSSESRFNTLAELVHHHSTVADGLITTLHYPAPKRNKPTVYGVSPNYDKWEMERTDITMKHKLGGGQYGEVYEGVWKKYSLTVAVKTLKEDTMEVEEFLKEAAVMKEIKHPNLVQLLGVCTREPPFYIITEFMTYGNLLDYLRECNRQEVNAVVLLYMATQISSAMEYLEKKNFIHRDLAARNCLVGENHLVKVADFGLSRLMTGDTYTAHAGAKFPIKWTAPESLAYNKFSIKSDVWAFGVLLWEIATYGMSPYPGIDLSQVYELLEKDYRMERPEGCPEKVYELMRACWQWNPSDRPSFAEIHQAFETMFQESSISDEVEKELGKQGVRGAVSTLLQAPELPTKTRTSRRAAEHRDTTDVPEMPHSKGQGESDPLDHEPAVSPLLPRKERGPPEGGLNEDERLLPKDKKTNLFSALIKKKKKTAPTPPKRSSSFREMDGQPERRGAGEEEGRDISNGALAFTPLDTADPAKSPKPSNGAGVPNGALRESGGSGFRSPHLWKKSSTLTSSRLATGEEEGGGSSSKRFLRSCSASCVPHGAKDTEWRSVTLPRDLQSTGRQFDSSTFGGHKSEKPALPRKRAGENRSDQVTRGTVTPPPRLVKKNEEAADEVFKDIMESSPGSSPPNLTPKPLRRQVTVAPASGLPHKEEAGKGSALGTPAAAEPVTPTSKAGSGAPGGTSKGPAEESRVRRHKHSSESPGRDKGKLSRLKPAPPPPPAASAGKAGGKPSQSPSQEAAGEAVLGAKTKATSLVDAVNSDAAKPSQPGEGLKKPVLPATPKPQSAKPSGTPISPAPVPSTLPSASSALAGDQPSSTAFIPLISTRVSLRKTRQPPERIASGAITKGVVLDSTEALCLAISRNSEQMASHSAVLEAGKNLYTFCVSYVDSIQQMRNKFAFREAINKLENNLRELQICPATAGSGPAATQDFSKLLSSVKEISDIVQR
Sequence of MARK1 (MARK) (Q9P0L2 whole entry): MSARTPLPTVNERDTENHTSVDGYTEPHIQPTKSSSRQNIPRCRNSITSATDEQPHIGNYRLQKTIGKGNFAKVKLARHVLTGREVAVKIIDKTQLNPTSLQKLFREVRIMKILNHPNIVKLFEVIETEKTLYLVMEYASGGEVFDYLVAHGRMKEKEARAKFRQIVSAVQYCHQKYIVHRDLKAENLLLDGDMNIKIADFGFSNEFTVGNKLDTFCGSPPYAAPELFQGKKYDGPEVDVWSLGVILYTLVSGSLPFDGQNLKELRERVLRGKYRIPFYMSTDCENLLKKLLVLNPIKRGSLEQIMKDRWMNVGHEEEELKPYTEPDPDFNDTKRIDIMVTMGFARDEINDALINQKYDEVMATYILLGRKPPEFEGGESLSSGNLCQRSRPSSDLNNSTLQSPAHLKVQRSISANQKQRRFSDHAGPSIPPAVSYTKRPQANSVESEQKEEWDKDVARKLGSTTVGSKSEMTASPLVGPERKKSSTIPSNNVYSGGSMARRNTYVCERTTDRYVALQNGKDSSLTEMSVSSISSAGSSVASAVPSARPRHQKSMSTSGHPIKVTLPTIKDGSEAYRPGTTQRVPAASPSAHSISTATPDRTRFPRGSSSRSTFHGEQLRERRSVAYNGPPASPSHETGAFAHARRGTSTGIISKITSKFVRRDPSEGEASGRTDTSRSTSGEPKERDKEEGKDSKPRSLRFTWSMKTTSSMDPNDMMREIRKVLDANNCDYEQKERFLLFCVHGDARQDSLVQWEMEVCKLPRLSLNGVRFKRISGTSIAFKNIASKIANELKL
Sequence of PRKCB1 (PKC beta I) (P05771 whole entry): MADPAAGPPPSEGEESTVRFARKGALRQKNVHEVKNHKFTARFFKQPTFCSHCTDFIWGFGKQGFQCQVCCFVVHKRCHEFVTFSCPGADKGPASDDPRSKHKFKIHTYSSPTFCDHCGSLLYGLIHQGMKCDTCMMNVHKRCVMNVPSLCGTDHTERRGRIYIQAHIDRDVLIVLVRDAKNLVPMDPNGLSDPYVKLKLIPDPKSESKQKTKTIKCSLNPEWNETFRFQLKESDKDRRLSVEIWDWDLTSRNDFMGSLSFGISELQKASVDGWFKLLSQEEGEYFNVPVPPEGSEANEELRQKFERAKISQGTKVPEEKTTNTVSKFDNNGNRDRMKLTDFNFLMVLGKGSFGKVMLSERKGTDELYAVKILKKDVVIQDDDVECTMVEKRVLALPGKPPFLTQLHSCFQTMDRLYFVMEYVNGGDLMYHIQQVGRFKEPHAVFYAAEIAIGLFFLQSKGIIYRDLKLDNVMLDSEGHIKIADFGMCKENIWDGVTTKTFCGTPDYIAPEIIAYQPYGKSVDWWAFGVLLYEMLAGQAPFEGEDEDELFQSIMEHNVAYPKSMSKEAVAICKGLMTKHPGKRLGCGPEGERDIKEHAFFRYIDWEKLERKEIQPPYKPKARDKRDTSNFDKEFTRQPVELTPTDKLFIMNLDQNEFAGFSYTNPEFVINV
Sequence of PIM1 (P11309 whole entry): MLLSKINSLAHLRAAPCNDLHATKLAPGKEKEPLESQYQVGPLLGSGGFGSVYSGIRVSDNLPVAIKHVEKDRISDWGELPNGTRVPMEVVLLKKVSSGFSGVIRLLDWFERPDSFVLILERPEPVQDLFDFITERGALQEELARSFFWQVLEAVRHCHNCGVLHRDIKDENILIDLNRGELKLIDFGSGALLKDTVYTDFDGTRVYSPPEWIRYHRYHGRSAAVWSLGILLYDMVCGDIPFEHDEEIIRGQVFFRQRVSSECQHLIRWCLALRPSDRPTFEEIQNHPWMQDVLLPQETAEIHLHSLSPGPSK

| Structure (SMILES) | inhibition at 1 µM (SGK (SGK1)) [%] | inhibition at 1 µM (ITK) [%] | inhibition at 1 µM (GRK5) [%] | inhibition at 1 µM (PRKG1) [%] | inhibition at 1 µM (MARK1 (MARK)) [%] | inhibition at 1 µM (PRKCI (PKC iota)) [%] | inhibition at 1 µM (CDK1/cyclin B) [%] | inhibition at 1 µM (NTRK2 (TRKB)) [%] | inhibition at 1 µM (PIM1) [%] | inhibition at 1 µM (PRKCB1 (PKC beta I)) [%] | inhibition at 1 µM (MAP4K5 (KHS1)) [%] | inhibition at 1 µM (ABL1) [%] | inhibition at 1 µM (AMPK A2/B1/G1) [%] |
| --- | --- | --- | --- | --- | --- | --- | --- | --- | --- | --- | --- | --- | --- |
| C=CC(=O)Nc1cccc(C(=O)NC2CCN(Cc3ccc(-c4nc5cc[nH]c(=O)c5cc4-c4ccccc4)cc3)CC2)c1 [30b] | 29 | 1 | -1 | 10 | 5 | -9 | 3 | 8 | -15 | 6 | 18 | 3 | 40 |
| C=CC(=O)Nc1cc(NC(=O)NC2CCN(Cc3ccc(-c4nc5cc[nH]c(=O)c5cc4-c4ccccc4)cc3)CC2)ccc1Cl [compound 27] | 21 | 8 | -2 | 11 | 7 | 5 | 3 | 1 | -18 | 6 | 5 | 3 | 77 |
| C=CC(=O)Nc1ccc2c(c1)n(C1CCN(Cc3ccc(-c4nc5cc[nH]c(=O)c5cc4-c4ccccc4)cc3)CC1)c(=O)n2C [24b] | 19 | -9 | -10 | 6 | 2 | 3 | 3 | 0 | -21 | 7 | 3 | 2 | 20 |
